This is an account of results in patent US20100048545A1, “Compounds and Compositions for Use in the Prevention and Treatment of Disorders of Fat Metabolism and Obesity” (INNODIA INC., priority 2006, published 2010).

In one series the test system is Agouti mice. The series can be described thus: Weight gain and food consumption in Agouti mice, 21 days. It counts as in vivo. The note with it: 50 or 100 mg/kg orally twice daily. The procedure:
Agouti mice, which are obese, diabetic and leptin resistant, were treated orally twice daily with 50 or 100 mg/kg of 4-[…] for 21 consecutive days. Body weight and food consumption were measured daily.

The next series relates to ob/ob mouse. The series can be described thus: Body weight gain and food consumption of ob/ob mice, 56 days. The note with it: 100 mg/kg twice daily. It counts as in vivo. The text has this: The objective of this study was to evaluate the effect of chronic administration of 4-hydroxyisoleucine (4-OH, compound 14a) on food consumption and body weight gain in a genetic model of obesity, the ob/ob mouse. Body weight gain and food consumption were monitored for 1 week prior to the commencement of treatment, and then for the 56 days of treatment.
A total of 16 animals were used in the study. The animals were distributed into 2 groups (1 treated, 1 control group, all on standard chow). Each group was composed of 8 animals. The mice were randomized according to body weight values.
For the eight weeks of treatment, the test agent was dissolved in reverse osmosis water. 4-hydroxyisoleucine was aliquoted and kept at 4° C. Control animals received reverse osmosis water twice daily (group 1). Mice from group 2 were treated twice daily with 4-OH at 100 mg/kg. All groups were treated by oral gavage. Treatment commenced on Day 0 and ended on Day 56 (FIGS. 21A and 21B). Food consumption was measured daily and averaged on a weekly basis beginning one week before the start of treatment as shown in FIG. 21B.

A further series concerns wistar obese rats. The series is described as follows: Reversal of weight gain in rat model of diet-induced obesity, 28 days. To be noted: 100 mg/kg twice daily oral. The source says:
The aim of this study was to evaluate the effect of chronic administration of 4-hydroxyisoleucine (4-OH, Compound 14a) on food consumption, tissue weight, and body weight gain of wistar obese rats.
A total of 30 animals were used in the study. The animals were acclimated for 1 week and fed standard chow. The animals were randomized into 3 groups of 10 animals each. Two groups were fed a high fat, high sucrose diet (HFHS), and 1 untreated control group was fed standard chow over a 28 day period. Animals were housed separately and food consumption was monitored daily.
In the following period of 28 days, the feeding regimen remained the same for the 3 groups; however, 1 group fed HFHS was treated with twice daily oral administration of 4-OH at 100 mg/kg per dose. For the 28 days of treatment, 4-OH was dissolved in reverse osmosis water, aliquoted, and kept at 4° C. Untreated animals received water twice daily.

The subject of series [1] is Wistar rat model of diet-induced obesity. The series is described as follows: Body fat (DEXA) and white adipose tissue weight in Wistar rat model of diet-induced obesity. It counts as in vivo, Wistar rats. To be noted: 28 days. The text has this:
A total of 60 animals were used in the study. The animals were distributed into 6 groups; 1 group was fed standard chow, 1 group was fed a high fat, high sucrose (HFHS) diet with 28 days treatment, 1 untreated control group was fed a HFHS diet, and 1 untreated group was fed a HFHS diet, but with caloric intake restricted to match the caloric intake of the 4-OH treated animals (pair-fed animals). A fifth group was fed a high fat, high sucrose (HFHS) diet with 28 days treatment and received an acute oral administration of 4-OH prior to experimentation on Day 29 of the study, and a sixth group was fed a HFHS diet, but with caloric intake restricted to match the caloric intake of the 4-OH treated animals receiving an acute oral administration of 4-OH on Day 29 of the study (pair-fed animals). Each group was composed of 10 animals. […] Immediately prior to commencement of treatment the animals were evaluated by DEXA scanning (Dual Energy X-ray Absortiometry) to determine the baseline percentage of body weight related to fat. For the four weeks of treatment, the test article (4-OH) was dissolved in reverse osmosis water. 4-OH was aliquoted and kept at 4° C. […] Untreated animals received water twice daily.

The test system of the next series is obese mice. The series can be described thus: Compound 22 and 4-hydroxyisoleucine on weight gain of obese mice, 21 days. It counts as in vivo, C57BL/6 mice. The note with it: p<0.01. The procedure:
The objective of the following study was to evaluate the effect of the lactone form of 4-hydroxyisoleucine (compound 22) on the weight gain of obese mice. 40 C57BL/6 mice were fed a high fat diet (60% of calories from fat) for 6 weeks in order to induce obesity. Animals were than randomized to 5 study groups of 8 mice each according to their body weight values. Thereafter, the animals were treated orally twice daily with either the water vehicle, 50 mg/kg of compound 22, 100 mg/kg of compound 22, 50 mg/kg of 4-hydroxyisoleucine or 100 mg/kg of 4-hydroxyisoleucine. The treatment lasted 21 days and body weight of mice were determined daily from day 1 to day 21 of the study.

Another series deals with HSL. The series can be described thus: RT-PCR gene expression in adipocytes of treated rats: HSL. It counts as in vivo. The procedure: As the ex vivo studies on adipocytes indicated the lipolytic effect of drug was due to chronic exposure (see previous example), a role in gene regulation was assessed. RT-PCR was used to assess the expression of genes in the adipocytes from treated and control animals.

Series [2] deals with Diet Induced Obesity (DIO)-Mice. It counts as in vivo. The procedure: A total of 40 animals were used in the study. The animals were distributed into 5 groups (4 treated, 1 control group, all on high fat diet). Each group was composed of 8 animals.
4-OH was aliquoted and kept at 4° C. […] Mice from groups 4 and 5 were treated twice daily with 50 and 100 mg/kg of compound 65a. All groups were treated by oral gavage. Treatment commenced on Day 0 and ended on Day 7 (FIG. 37A). Body weights were measured daily.

Consider `C[C@@H]([C@H](C)O)[C@H](N)C(=O)O` [Compound 14a, (2S,3R,4S)-4-Hydroxyisoleucine], for which the food intake result in the series on Agouti mice was “little effect on food intake”. Moreover, the body weight gain entry with Agouti mice (vs vehicle) was “significant decrease of body weight gain”. In addition, the food consumption entry was “slight decrease in food consumption during the first three weeks of treatment” in the series with ob/ob mouse, “reduction in food consumption” with wistar obese rats and “slight decrease in food consumption” in series [2] (first week of treatment). Further, the weight gain entry in the series on ob/ob mouse (Day 21 to Day 56, vs control group) was “significantly reduced”; in the series with ob/ob mouse (course of treatment) it was “moderation of weight gain was observed”; in the series on wistar obese rats (after 28 days HFHS) it was “reversal of weight gain”; with wistar obese rats (after 28 days HFHS, listed as 4-OH) it was “Moderation of weight gain was observed”; in series [2] (50 and 100 mg/kg twice daily, first week of treatment), “moderation of weight gain was observed”. The tolerability of treatment result with ob/ob mouse (oral gavage, 56 days) is listed as “well tolerated”; in the series with wistar obese rats (after 28 days HFHS), “well tolerated”; in series [2] (50 and 100 mg/kg twice daily oral gavage, one week), “well tolerated”. In the series with wistar obese rats, the “epididymal and peri-renal adipose tissue” value is “reduction of epididymal and peri-renal adipose tissue”. Besides, the “muscle, brown fat, and organ weight” value in the series with wistar obese rats was “not affected”. The “percentage change in fat composition relative to baseline (DEXA)” value in series [1] (100 mg/kg twice daily oral, HFHS ad libitum, p<0.01) is “significant reduction in percentage fat”. For the same compound, in series [1] (100 mg/kg twice daily), the “weight of white adipose tissues compared with normal chow animals” value is given as “the same as untreated animals receiving normal chow”. Besides, the “weight of white adipose tissue (epididymal, inguinal and retroperitoneal)” value in series [1] (100 mg/kg twice daily, vs pair fed untreated and HFHS controls) is “significant reduction in the weight of these tissues”. Moreover, the body weight result in the series on obese mice (100 mg/kg orally twice daily, 21 days, vs water control) is “significant reduction of body weight compared to the water control group”. Moreover, the “white fat mass (epididymal fat)” value in the series on obese mice (100 mg/kg, end of treatment) is listed as “loss of the white fat mass (epididymal fat)”. Besides, the “expression of hormone sensitive lipase (HSL), increase” value in the series on HSL is recorded as 1.3-1.4 times. In addition, the “Increase (x times) in expression of HSL” value with HSL (HFHS diet, treated for 4 weeks (28 days)) is 1.3 x times.
